Assay results: publication PMC4710668, “Bioactivation of food genotoxicants 5-hydroxymethylfurfural and furfuryl alcohol by sulfotransferases from human, mouse and rat: a comparative study” (Archives of Toxicology, 2014)
“And” between values parts separate entries of the source, which are not always exact repeats. Equal entries are not always repeated.

Key:
Assay in all cases: FFA sulfoconjugation assay (N6-MF-A formation with adenosine as scavenger)
Type in all cases: biochemical
hSULT1A3 = molecular target: T1, hSULT1A3 (Homo sapiens, UniProt P0DMM9)
T1 construct: made in house; host or cells: Salmonella typhimurium TA1538 (cytosolic fraction, not purified)
T1 sequence (P0DMM9 whole entry): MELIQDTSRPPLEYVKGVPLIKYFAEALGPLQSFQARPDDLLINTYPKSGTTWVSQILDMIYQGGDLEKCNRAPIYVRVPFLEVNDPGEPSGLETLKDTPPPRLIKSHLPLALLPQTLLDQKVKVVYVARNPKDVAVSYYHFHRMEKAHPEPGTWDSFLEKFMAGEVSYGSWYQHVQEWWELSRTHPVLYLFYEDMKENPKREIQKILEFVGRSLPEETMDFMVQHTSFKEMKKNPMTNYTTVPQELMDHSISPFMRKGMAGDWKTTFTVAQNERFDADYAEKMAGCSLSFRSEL
Outline: (§1)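 Quadruplicate incubations of FFA with SULT-expressing TA1538 cytosol and 10 mM adenosine, 20 min at 37 °C. Quantitation of N6-MF-A by UPLC-MS/MS with summed MRM signals against [15N5]N6-MF-A. Values were corrected by subtracting duplicate SULT-deficient cytosol controls.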

hSULT1C1 = molecular target: T2, hSULT1C1 (Homo sapiens, UniProt O00338)
T2 construct: made in house; host or cells: Salmonella typhimurium TA1538 (cytosolic fraction, not purified)
T2 sequence (O00338 whole entry): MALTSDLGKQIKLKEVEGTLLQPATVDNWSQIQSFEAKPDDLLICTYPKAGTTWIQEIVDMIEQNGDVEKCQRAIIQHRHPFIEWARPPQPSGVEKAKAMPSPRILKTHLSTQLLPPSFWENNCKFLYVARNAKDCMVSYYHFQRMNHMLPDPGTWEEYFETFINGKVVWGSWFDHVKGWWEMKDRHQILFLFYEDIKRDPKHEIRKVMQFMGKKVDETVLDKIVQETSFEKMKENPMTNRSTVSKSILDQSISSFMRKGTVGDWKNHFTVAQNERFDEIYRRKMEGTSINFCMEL
Outline: as §1

hSULT1E1 = molecular target: T3, hSULT1E1 (Homo sapiens, UniProt P49888)
T3 construct: made in house; host or cells: Salmonella typhimurium TA1538 (cytosolic fraction, not purified)
T3 sequence (P49888 1-294): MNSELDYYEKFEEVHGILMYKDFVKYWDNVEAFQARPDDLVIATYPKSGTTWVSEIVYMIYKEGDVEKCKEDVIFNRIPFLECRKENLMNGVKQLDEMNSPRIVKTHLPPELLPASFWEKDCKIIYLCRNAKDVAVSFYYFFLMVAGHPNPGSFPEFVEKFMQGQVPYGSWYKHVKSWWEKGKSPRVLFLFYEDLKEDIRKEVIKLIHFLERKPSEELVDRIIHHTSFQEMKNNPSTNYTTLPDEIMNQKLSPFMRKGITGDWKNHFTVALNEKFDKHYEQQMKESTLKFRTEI
Outline: as §1

mSult1a1 = molecular target: T4, mSult1a1 (Mus musculus, UniProt P52840)
T4 construct: made in house; host or cells: Salmonella typhimurium TA1538 (cytosolic fraction, enzyme not purified)
T4 sequence (P52840 whole entry): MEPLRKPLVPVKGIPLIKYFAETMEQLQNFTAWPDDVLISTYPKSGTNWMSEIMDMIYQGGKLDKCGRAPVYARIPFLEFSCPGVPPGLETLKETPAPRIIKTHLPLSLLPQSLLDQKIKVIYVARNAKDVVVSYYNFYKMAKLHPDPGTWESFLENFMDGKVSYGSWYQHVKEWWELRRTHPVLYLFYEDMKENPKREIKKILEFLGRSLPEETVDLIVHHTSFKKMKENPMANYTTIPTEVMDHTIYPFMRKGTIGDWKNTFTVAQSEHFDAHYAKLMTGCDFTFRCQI
Outline: as §1

mSult1b1 = molecular target: T5, mSult1b1 (Mus musculus, UniProt Q9QWG7)
T5 construct: made in house; host or cells: Salmonella typhimurium TA1538 (cytosolic fraction, enzyme not purified)
T5 sequence (Q9QWG7 whole entry): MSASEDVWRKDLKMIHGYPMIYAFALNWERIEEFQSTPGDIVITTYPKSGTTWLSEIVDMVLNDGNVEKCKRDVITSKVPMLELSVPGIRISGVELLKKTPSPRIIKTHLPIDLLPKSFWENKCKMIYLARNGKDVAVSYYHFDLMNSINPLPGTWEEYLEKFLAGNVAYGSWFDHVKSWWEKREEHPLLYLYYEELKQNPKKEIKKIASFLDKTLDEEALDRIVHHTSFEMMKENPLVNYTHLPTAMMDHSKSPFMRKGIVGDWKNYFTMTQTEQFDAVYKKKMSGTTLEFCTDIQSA
Outline: as §1

mSult1d1 = molecular target: T6, mSult1d1 (Mus musculus, UniProt Q3UZZ6)
T6 construct: made in house; host or cells: Salmonella typhimurium TA1538 (cytosolic fraction, enzyme not purified)
T6 sequence (Q3UZZ6 whole entry): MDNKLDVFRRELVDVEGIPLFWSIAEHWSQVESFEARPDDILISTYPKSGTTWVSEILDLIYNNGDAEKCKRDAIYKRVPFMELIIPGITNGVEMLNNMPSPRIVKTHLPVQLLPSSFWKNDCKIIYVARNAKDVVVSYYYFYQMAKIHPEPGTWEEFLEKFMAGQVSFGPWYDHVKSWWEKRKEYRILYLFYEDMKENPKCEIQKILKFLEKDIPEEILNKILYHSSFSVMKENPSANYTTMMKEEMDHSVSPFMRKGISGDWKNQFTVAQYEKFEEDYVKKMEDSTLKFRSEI
Outline: as §1

rSult1c1 = molecular target: T7, rSult1c1 (Rattus norvegicus, UniProt P50237)
T7 construct: made in house; host or cells: Salmonella typhimurium TA1538 (cytosolic fraction, enzyme not purified)
T7 sequence (P50237 whole entry): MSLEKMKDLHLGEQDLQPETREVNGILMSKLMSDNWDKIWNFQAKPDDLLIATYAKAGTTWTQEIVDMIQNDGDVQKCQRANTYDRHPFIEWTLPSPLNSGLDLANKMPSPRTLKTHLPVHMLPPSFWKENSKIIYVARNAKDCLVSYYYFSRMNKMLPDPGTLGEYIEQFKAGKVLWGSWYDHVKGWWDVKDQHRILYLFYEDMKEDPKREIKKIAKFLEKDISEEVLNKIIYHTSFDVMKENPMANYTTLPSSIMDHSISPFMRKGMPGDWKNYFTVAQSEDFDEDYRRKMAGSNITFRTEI
Outline: as §1

rSult1c2 = molecular target: T8, rSult1c2 (Rattus norvegicus, UniProt Q9WUW8)
T8 construct: made in house; host or cells: Salmonella typhimurium TA1538 (cytosolic fraction, enzyme not purified)
T8 sequence (Q9WUW8 whole entry): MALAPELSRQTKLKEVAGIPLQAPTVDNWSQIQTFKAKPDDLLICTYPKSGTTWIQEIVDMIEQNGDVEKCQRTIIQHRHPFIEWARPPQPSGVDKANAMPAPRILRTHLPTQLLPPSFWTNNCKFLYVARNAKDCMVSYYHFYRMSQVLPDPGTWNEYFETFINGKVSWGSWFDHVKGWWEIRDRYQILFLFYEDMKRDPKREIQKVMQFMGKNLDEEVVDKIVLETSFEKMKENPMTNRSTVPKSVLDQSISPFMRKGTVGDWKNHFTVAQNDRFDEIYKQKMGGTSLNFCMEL
Outline: as §1

[1] = 1 mM FFA, corrected by actual SULT concentration in the cytosolic preparation

OCc1ccco1 [FFA, furfuryl alcohol]
Rate of N6-MF-A formation (hSULT1A3; 1 mM FFA): 27.3 ± 0.5 fmol N ^6-MF-A/mg/min
Rate of N6-MF-A formation (corr.) (hSULT1A3; [1]): 1,950 ± 30 fmol N ^6-MF-A/mg/min
Rate of N6-MF-A formation (hSULT1A3; 10 mM FFA): 226 ± 3 fmol N ^6-MF-A/mg/min
Rate of N6-MF-A formation (hSULT1C1; 0.1 mM FFA): <18 fmol N ^6-MF-A/mg/min
Rate of N6-MF-A formation (hSULT1C1; 1 mM FFA): <20 fmol N ^6-MF-A/mg/min
Rate of N6-MF-A formation (hSULT1C1; 10 mM FFA): <44 fmol N ^6-MF-A/mg/min
Rate of N6-MF-A formation (hSULT1E1; 0.1 mM FFA): <18 fmol N ^6-MF-A/mg/min
Rate of N6-MF-A formation (hSULT1E1; 1 mM FFA): <20 fmol N ^6-MF-A/mg/min
Rate of N6-MF-A formation (hSULT1E1; 10 mM FFA): 47.0 ± 0.9 fmol N ^6-MF-A/mg/min
Rate of N6-MF-A formation (mSult1a1; 0.1 mM FFA): 361 ± 4 fmol N ^6-MF-A/mg/min
Rate of N6-MF-A formation (mSult1a1; 1 mM FFA): 2,590 ± 20 fmol N ^6-MF-A/mg/min
Rate of N6-MF-A formation (corr.) (mSult1a1; [1]): 61,700 fmol N ^6-MF-A/mg/min and 61,700 ± 400 fmol N ^6-MF-A/mg/min
ratio of N6-MF-A formation rate, mSult1a1 vs mSult1d1 (mSult1a1; 1 mM FFA, corrected rates): about 14 fold
Rate of N6-MF-A formation (mSult1a1; 10 mM FFA): 5,140 ± 60 fmol N ^6-MF-A/mg/min
Rate of N6-MF-A formation (mSult1b1; 0.1 mM FFA): <18 fmol N ^6-MF-A/mg/min
Rate of N6-MF-A formation (mSult1b1; 10 mM FFA): 74.3 ± 1.6 fmol N ^6-MF-A/mg/min
Rate of N6-MF-A formation (mSult1d1; 0.1 mM FFA): 52.5 ± 1.7 fmol N ^6-MF-A/mg/min
Rate of N6-MF-A formation (mSult1d1; 1 mM FFA): 468 ± 6 fmol N ^6-MF-A/mg/min
Rate of N6-MF-A formation (corr.) (mSult1d1; [1]): 4,260 ± 60 fmol N ^6-MF-A/mg/min
Rate of N6-MF-A formation (mSult1d1; 10 mM FFA): 2,610 ± 30 fmol N ^6-MF-A/mg/min
Rate of N6-MF-A formation (rSult1c1; 0.1 mM FFA): <18 fmol N ^6-MF-A/mg/min
Rate of N6-MF-A formation (rSult1c1; 1 mM FFA): 97.8 ± 2.3 fmol N ^6-MF-A/mg/min
Rate of N6-MF-A formation (rSult1c1; 10 mM FFA): 492 ± 13 fmol N ^6-MF-A/mg/min
Rate of N6-MF-A formation (rSult1c2; 0.1 mM FFA): <18 fmol N ^6-MF-A/mg/min
Rate of N6-MF-A formation (rSult1c2; 1 mM FFA): <20 fmol N ^6-MF-A/mg/min
Rate of N6-MF-A formation (rSult1c2; 10 mM FFA): <44 fmol N ^6-MF-A/mg/min
